The test system of series [1] is erythroid cells. Nature of the series: FACS analysis of erythroid cells (TER-119) in bone marrow cells of mice treated with EC-18. Particulars: C57BL mice, EC-18 orally 50 mg/kg for seven days; untreated mice 31.2%. It counts as in vivo, C57BL mouse. On the procedure: Bone marrow cells were isolated from C57BL mice in the following manner. A total of eight 9-week-old C57 BL mice weighting […] were used in the experiment. Three mice were used as control (C1-3). EC-18 was administered orally to five mice at a dose of 50 mg/kg for seven days. Mice were sacrificed by […] and sterilized with 70% alcohol. The tissue of tibia and femur was cut, skin was removed and muscles were taken out. After removing tibia by breaking it in the opposite direction, the sample was washed with 70% alcohol and placed in PBS. After removing the cartilage between femur and tibia, muscles were removed from femur. Femur was separated from pelvis, washed in 70% alcohol and placed in PBS. In order to isolate bone marrow cells from femur, the pelvic end was cut and after filling the 1 ml syringe with culture media, the needle was injected into the cartilage in the knee side to allow bone marrow cells to be pushed out. […]
Differentiation and proliferation of erythroid cells in bone marrow cells collected from C57BL mice treated with EC-18 were analyzed by using TER-119 antibody (BD Biosciences-Pharmingen, San Jose, Calif., USA), which is a marker of erythroid cells, and FACS. […] Bone marrow cells isolated by the method of Example 2 were stained by incubating with anti-TER119-FITC antibody and analyzed by using FACscan flow cytometer (Becton Dickinson, San Jose, Calif.).
In general terms: A flow cytometer gives signals particle by particle.

In series [2] the test system is cells other than erythroid cells in bone marrow cells. Nature of the series: FACS analysis of other bone marrow cells (B, T, DC, macrophages, neutrophils, NK) of mice treated with EC-18. It counts as in vivo, C57BL mouse. Particulars: C57BL mice, EC-18 orally 50 mg/kg for seven days, CD19, CD4, CD8, CD11c, CD11b/F4, CD11b/ly, CD122 antibodies. On the procedure:
Bone marrow cells were isolated from C57BL mice in the following manner. A total of eight 9-week-old C57 BL mice weighting […] were used in the experiment. Three mice were used as control (C1-3). EC-18 was administered orally to five mice at a dose of 50 mg/kg for seven days. Mice were sacrificed by […] and sterilized with 70% alcohol. The tissue of tibia and femur was cut, skin was removed and muscles were taken out. After removing tibia by breaking it in the opposite direction, the sample was washed with 70% alcohol and placed in PBS. After removing the cartilage between femur and tibia, muscles were removed from femur. Femur was separated from pelvis, washed in 70% alcohol and placed in PBS. In order to isolate bone marrow cells from femur, the pelvic end was cut and after filling the 1 ml syringe with culture media, the needle was injected into the cartilage in the knee side to allow bone marrow cells to be pushed out. The culture media containing bone marrow cells was transferred to a tube and the tube was centrifuged. […]
Bone marrow cells isolated from C57BL mice treated with EC-18 (EC1-EC5, EC-18) and untreated mice (C1-C3, con) were compared. […] Cells were incubated with TER-119, CD19, CD4, CD8, CD11c, CD11b/ly, CD122 antibodies (BD Biosciences-Pharmingen, San Jose, CA, USA) for 1 hour and analyzed using FACscan flow cytometer (Becton Dickinson, San Jose, Calif.).

Series [3] deals with erythrocytes. The experiment in a line: Concentration of erythrocytes in blood of phenyl hydrazine anemia-induced mice. It counts as in vivo, mouse. The following applies: EC-18 orally 5 mg/ml. Here is the method: To observe changes in the level of erythrocytes in mouse blood, anemia-induced mice were prepared by administering phenyl hydrazine (PHZ) intraperitoneally into mice weighing […] at a dose of […]. After administering EC-18 orally to the mice at a dose of 5 mg/ml, blood was collected after 3 days and 13 days. For comparison, a normal group that was not treated with phenyl hydrazine and a control group that was treated with olive oil instead of EC-18 were prepared and blood was collected from the groups after 3 days and 13 days. Collected blood was transferred to EDTA bottle 0.5 ml (Minicollect tube, Greiner bio-one, Austria) and the concentration of erythrocytes (number per pl, unit: 10^6) was measured using a flow cytometer, Auto Hematology Analyzer BC-5300 (Mindray, Shenzhen, China). FIG. 5 is a graph showing the concentration of erythrocytes 3 days after phenyl hydrazine treatment in the normal group, the control group (treated with PHZ and olive oil) and the test group (treated with PHZ and EC-18). FIG. 6 is a graph showing the concentration of erythrocytes 13 days after phenyl hydrazine treatment in the normal group, the control group and the test group.

The conditions of series [4]: sepsis animal model, cecal-ligation-puncture; cited from earlier work.
For series [5] the following is noted: GLP toxicity test; cited from earlier work.

Entries after “also recorded” stand apart in the source; their conditions may differ.

As for `CCCCC/C=C\C/C=C\CCCCCCCC(=O)OC(COC(C)=O)COC(=O)CCCCCCCCCCCCCCC` (stereo not drawn) [EC-18, 1-palmitoyl-2-linoleoyl-3-acetylglycerol], in series [1], the “percentage of erythroid cells in bone marrow cells (TER-119, FACS)” value is 41.7%. The “ratio of cells other than erythroid cells in bone marrow cells” value in series [2] is “maintained same; also recorded: not changed”. Further, the “concentration of erythrocytes in blood 3 days after PHZ treatment” value in series [3] (vs control (PHZ and olive oil), 3 days) is “mitigates the reduction of erythrocytes”. The “concentration of erythrocytes in blood 13 days after PHZ treatment” value in series [3] (vs normal group, 13 days) is recorded as “slightly higher than the normal level”. The “survivability ratio of animals” value in series [4] is “increases survivability ratio”. Also, in series [5], the toxicity entry is reported as “no toxicity”.
